Results on 10 molecules are retold here after patent publication US12029738B2, “Antiproliferative compounds and methods of use thereof” (Celgene Corporation, priority 2017, dated 2024).

The term IC50 denotes the midpoint of a concentration-inhibition curve.

One assay deals with T1, dopamine D2S receptor (Homo sapiens, UniProt P14416).
T1 construct: host or cells: HEK-293 cells (membrane homogenates)
The assay is described as follows: Dopamine D2S receptor radioligand binding (HEK-293). The conditions noted are these: 10 μM. As for the experimental part: (§1) α1 Adrenergic and Dopamine D2 Receptors. Methods: Binding and functional assays for α1 adrenergic and dopamine D2 receptors were performed by Eurofins Cerep according to their methods.
Dopamine D2 Receptor. Binding at 10 μM. The binding assay evaluated the affinity of test articles for the dopamine D2 receptor in transfected human embryonic kidney (HEK)-293 cells. For determining the binding in the D2S receptor assay, test article was incubated with 0.3 nM [^3H] methylspiperone or 1 nM [^3H] 7-hydroxy-2-N,N-dipropylaminotetralin (7-OH-DPAT). [3H] Methylspiperone at 0.3 nM also was used as control ligand in the D2L binding assay. Cell membrane homogenates were incubated in duplicate at room temperature for 60 minutes with ligand in the absence or presence of test articles at 10 μM. After the incubation period, samples were filtered through glass fiber filters, the filters dried and then counted for radioactivity using a scintillation counter. Results are expressed as mean percent inhibition of control radioligand binding.
Binding IC50. To determine the binding IC50 in the D2 receptor assays, HEK-293 were tested as described above but with varying concentrations of test article. Compound A was tested at 0.01-30 μM in the D2S radioligand binding assay. […] Compound 1 was assayed at 0.03-100 μM in both the D2S and D2L assays, while Compound 2 was tested at 0.03-100 μM in the D2S assay and 0.01-100 μM in the D2L assays. The IC50 was defined as the concentration causing a half-maximum inhibition of control specific binding.

The test system of assay [1] is non-selective α1 adrenergic receptor. The assay is described as follows: α1 adrenergic receptor radioligand binding ([3H]prazosin). The conditions noted are these: 10 μM; rat cerebral cortex; 0.25 nM [3H]prazosin. As to the method:
as §1
α1 Adrenergic Receptor. Binding at 10 μM. The binding assay evaluated the affinity of test article for the non-selective α1 adrenergic receptor in rat cerebral cortex. Membrane homogenates of cerebral cortex were incubated in duplicate for 60 minutes at room temperature with 0.25 nM [^3H]prazosin in the absence or presence of test articles at 10 μM. After the incubation period, samples were filtered through glass fiber filters, the filters dried and then counted for radioactivity using a scintillation counter. Results are expressed as mean percent inhibition of control radioligand binding.
Binding IC50. […] Compound A was tested at 0.01-30 μM. […] Compound 1 and Compound 2, the S-enantiomer of Compound 1, were assayed at 0.03-100 μM. Radioactivity was measured as described above. The IC50 was defined as the concentration causing a half-maximum inhibition of control specific binding.

Assay [2] relates to MM cell lines H929-1051, KMS11, KMS-12PE, L363, OPM-P10, RPMI8226. The assay is described as follows: Combination with small molecule inhibitors, synergy (Cell Titer-Glo, 3 days). Type of assay: cell-based, human. The note with it: Highest Single Agent method, 6 MM cell lines. As for the experimental part:
The effect of combining treatment with Compound 2 and small molecule inhibitors with various mechanisms was evaluated in a panel of MM cell lines. Thirteen small molecule inhibitors were selected for combination studies with Compound 2 based on their preclinical and/or activity against MM. The cell lines H929-1051, KMS11, KMS-12PE, L363, OPM-P10, and RPMI8226 were selected for this study to represent the different genetic clustering groups across MM cell lines. […] Combination agents were dosed in a 6 point dose-response curve (DRC) at a 1:3 dilution, Compound 2 was dosed in a 10 point DRC, also at a 1:3 dilution. The combination experiments were run twice, each time with replicate data on separate plates. Compounds were pre-spotted into the appropriate wells of 384-well plates using an acoustic dispenser. All MM cell lines were cultured in an incubator at 37° C. with 5% CO2 using the indicated cell culture media containing 1× Penicillin-Streptomycin. Cells were added to the compound containing 384-well plates using a Multidrop Combi Reagent Dispenser and allowed to incubate for 3 days at 37° C. with 5% CO2. After 3 days, cells were assessed for their level of ATP content via Cell Titer-Glo measured on a luminescence detector (PerkinElmer Envision).
The Highest Single Agent (HAS) method was used to detect synergy in the dose response curve data. Combinations were analyzed from a response surface perspective. A statistical framework (Van Der Borght, K., et al., BIGL: Biochemically Intuitive Generalized Loewe null model for prediction of the expected combined effect compatible with partial agonism and antagonism; Scientific Reports, 7 (1), 17935-1-17935-9 (2017)) was incorporated into the analysis on top of the HAS null model with two statistical tests: 1) Complete response surface differs from null model, 2) Single well differs from null model.
(In general: ATP-based viability assays read luminescence as a measure of living cells.)

Another assay concerns RPMI-8226. Description: PBMC and MM cell treatment assay (single culture vs co-culture). Type of assay: cell-based. The note with it: Homo sapiens, RPMI-8226, RPMI-8226, read-out: Immune-mediated Cell Killing IC50.
In the next assay the test system is H929-1051. Described as above. Type of assay: cell-based, human. The note with it: Homo sapiens, PBMC, H929-1051, read-out: Immune-mediated Cell Killing IC50. As to the method: (§2) PBMC and MM Cell Treatment Assay Procedure. Ninety-six-well dishes were pre-coated with anti-CD3 antibody (OKT3, 3 μg/mL) and incubated at 4° C. overnight before the start of the experiment. Frozen PBMC donor cells were thawed at 37° C. for 2 minutes in RPMI medium with 10% FBS and cell counts and viability were measured on the Vi-CELL analyzer. Peripheral blood mononuclear cells were washed and diluted to 1×10^6 cells/mL and dispensed into the compound-treated plates in a total volume of 200 μL. Cells were incubated with compounds for 2 h before being transferred onto anti-CD3-coated plates and incubated for an additional 72 h. At the same time, MM cell lines (NCI-H929, H929-1051, OPM2, OPM2-P10) were diluted to a final concentration of 0.1×10^6 cells/mL and labeled with CellTrace CFSE according to manufacturer's instructions. Multiple myeloma cell lines were then dispensed into compound-treated plates at a total volume of 200 μL and incubated for 72 h. After 72 h, the PBMCs and MM cells were counted and transferred into a U-bottom 96-well plate at a final T:E ratio of 1:5. After 24 h coculture, specific target cell lysis by PBMC cells was measured using Annexin V-AF647 and 7-AAD according to manufacturer's instructions and samples were run on the Attune NxT Cytometer.
(§3) Because preincubation of immune cells with Compound 2 enhanced the targeting and lysing of MM cells, the effect of preincubation of MM cells with Compound 2 on their susceptibility to immune-mediated killing was also explored (FIG. 16A, FIG. 16B, FIG. 16C, and FIG. 16D, Table 12). Four MM cell lines and anti-CD3 antibody-activated PBMCs were separately preincubated with Compound 2, lenalidomide, or pomalidomide for 72 h. When anti-CD3 antibody-activated PBMCs and MM lines were both pretreated with Compound 2, lenalidomide, or pomalidomide, followed by co-culture, the effects on the PBMC-induced MM cell lysis were enhanced both in the potency and magnitude of the killing response. […] For the pomalidomide-resistant OPM2-P10 cell line, Compound 2 treatment of the MM cells enhanced the immune-mediated killing by ˜3000-fold (Table 12).

The next assay has as its system OPM2-P10. Described as above. Type of assay: cell-based, human. The conditions noted are these: Homo sapiens, PBMC, read-out: Immune-mediated Cell Killing IC50. As to the method:
as §2, §3

The test system of the next assay is NCI-H929. The description is as above. The conditions noted are these: Homo sapiens, NCI-H929, NCI-H929, read-out: Immune-mediated Cell Killing IC50. Type of assay: cell-based, human. As to the method:
as §2, §3

Another assay concerns K562 cells. The assay is described as follows: Coculture of compound-treated IL-2-activated PBMCs with K562 cells. Type of assay: cell-based, human. The note with it: Homo sapiens, K562; IL-2-activated PBMCs treated 72 h; 4 h coculture; read-out: IC50 of compound-treated PBMCs for direct K562 cell killing. As to the method:
Coculture Experiments with Peripheral Blood Mononuclear Cells and K562 Cells. Methods: Human Peripheral Blood Mononuclear Cell (PBMC) Preparation: PBMCs isolated from healthy donors were cultured in RPMI 1640 medium with 10% FBS at a density of 1×10^6 cells/mL.
Cell Culture: K562 cells were kept in log phase, and cell density and viability were monitored by trypan blue exclusion using the Vi-CELL® XR cell viability analyzer (Beckman Coulter, Brea, CA).
Assay Procedures: Freshly isolated human PBMCs were cultured with recombinant IL-2 at concentration of 20 units/mL for 72 h. Peripheral blood mononuclear cells were then spun down and re-suspended in fresh RPMI complete medium to 2×10^6 cells/mL. Cells were then treated with DMSO or compounds at the indicated concentrations and incubated for an additional 72 h. The PBMCs were then washed twice in fresh RPMI complete medium prior to coculture. K562 cells were re-suspended to a cell density of 1×10^6/mL and stained with 1 μM CellTrace CFSE according to manufacturer's instructions. The labeled K562 cells were then seeded into a 96-well round bottom plate at 1×10^5 cells/well. Peripheral blood mononuclear cells were then transferred into the same 96-well plate at a 1:15 ratio, in triplicate and incubated at 37° C. for 4 h. Specific target cell lysis by PBMC cells was measured using Annexin V-fluorescein isothiocyanate (FITC) and propidium iodide (PI) according to manufacturer's instructions and samples were run on the FACS Array scan. Non-labeled K562 cells, CellTrace CFSE-labeled K562 cells, and Annexin V-FITC- and PI labeled untreated K562 cells were included in each assay as controls.

The next assay concerns OPM2. The assay is described as follows: PBMC and MM cell treatment assay (single culture vs co-culture). Type of assay: cell-based. The conditions noted are these: Homo sapiens, OPM-2, OPM2, read-out: Immune-mediated Cell Killing IC50. As to the method: as §2, §3

Like-named read-outs stand apart in the source and are kept apart here.

T1 sequence (P14416 1-414 isoform P14416-2): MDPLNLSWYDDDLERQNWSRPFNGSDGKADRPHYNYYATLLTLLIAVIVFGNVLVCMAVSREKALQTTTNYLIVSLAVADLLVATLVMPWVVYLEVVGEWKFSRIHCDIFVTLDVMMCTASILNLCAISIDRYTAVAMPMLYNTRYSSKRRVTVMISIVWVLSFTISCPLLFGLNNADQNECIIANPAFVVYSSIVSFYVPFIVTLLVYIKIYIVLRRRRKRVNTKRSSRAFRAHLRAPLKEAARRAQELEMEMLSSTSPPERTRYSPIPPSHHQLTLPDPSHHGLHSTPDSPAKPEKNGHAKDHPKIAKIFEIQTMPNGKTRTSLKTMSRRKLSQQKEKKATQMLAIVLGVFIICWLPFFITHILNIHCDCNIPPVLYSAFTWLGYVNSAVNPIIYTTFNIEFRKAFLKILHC

`O=C1CCC(N2Cc3c(OCc4ccc(CN5CCN(c6ccccc6)CC5)cc4)cccc3C2=O)C(=O)N1` (racemic) [Ex. 5.229]: the “Dopamine D2S % Inhibition (10 μM)” value on dopamine D2S receptor came out at 98.7%.
Take `O=C1CCC(N2Cc3c(OCc4ccc(CN5CCN(c6ccc(F)cc6)CC5)cc4)cccc3C2=O)C(=O)N1` (racemic) [Ex. 5.273]: the “Adrenergic α1 (non-selective) % Inhibition (10 μM)” value in assay [1] was found to be 100.3%. Moreover, at dopamine D2S receptor, the “Dopamine D2S % Inhibition (10 μM)” value is listed as 94.7%.
On to `O=C1CCC(N2C(=O)c3cccc(OCc4ccc(CN5CCN(c6ccc(F)cc6)CC5)cc4)c3C2=O)C(=O)N1` (racemic) [Ex. 5.289], for which, at dopamine D2S receptor, the “Dopamine D2S % Inhibition (10 μM)” value is given as 92.4%.
In the case of `O=C(CCCCCCNC(=O)c1cnc(N(c2ccccc2)c2ccccc2Cl)nc1)NO` [ACY241], in [2], the “synergistic activity in combination with Compound 2 (cell lines)” value (shortened to “synergistic activity in combination”) is reported as “synergistic in L363/OPM2-P10”.
Same read-out and setting: the entry for `CO[C@H]1/C=C/C[C@H](C)[C@@H](C)S(=O)(=O)NC(=O)c2ccc3c(c2)N(C[C@@H]2CC[C@H]21)C[C@@]1(CCCc2cc(Cl)ccc21)CO3` [AMG176] is “synergistic activity in three cell lines (KMS11, KMS12-PE, L363)”.
Same read-out and setting: the entry for `Cn1cc(-c2cc(S(C)(=O)=O)ccc2OCC2CC2)c2ccccc2c1=O` [Compound D, 4-[2-(cyclopropylmethoxy)-5-(methanesulfonyl)phenyl]-2-methylisoquinolin-1(2H)-one] is “synergistic activity in the MM cells”; for `COc1ccc(-c2c(-c3ccc(C#N)c(F)c3)nc(N3CCC(N)CC3)n(C)c2=O)cc1F` [Compound E, 4-[2-(4-amino-piperidin-1-yl)-5-(3-fluoro-4-methoxy-phenyl)-1-methyl-6-oxo-1,6-dihydropyrimidin-4-yl]-2-fluoro-benzonitrile] it is “synergistic in L363 and KMS12-PE cells”.
Regarding `Nc1cccc2c1CN(C1CCC(=O)NC1=O)C2=O` (stereo not drawn) [Lenalidomide, lenalidomide], the IC50 in the assay with RPMI-8226 (Co-culture with PBMCs) was 124 nM; in the assay with RPMI-8226 (Single culture), above 10000 nM; in the assay with H929-1051 (Co-culture with PBMCs) it was 878 nM; in the assay with H929-1051 (Single culture), above 10000 nM; in the assay with OPM2-P10 (Co-culture with PBMCs), 8090 nM; with OPM2-P10 (Single culture), above 10000 nM. The IC50 in the assay on NCI-H929 (Co-culture with PBMCs) was 317 nM; with NCI-H929 (Single culture), above 10000 nM; in the assay with K562 cells, 20 nM; with OPM2 (Co-culture with PBMCs), 1720 nM; with OPM2 (Single culture), above 10000 nM.
`Cc1sc2c(c1C)C(c1ccc(Cl)cc1)=N[C@@H](CC(=O)Nc1ccc(O)cc1)c1nnc(C)n1-2` [birabresib]: in assay [2], the “synergistic activity in combination” value was “synergistic activity in the MM cells”.
With MIK665, in [2], the “synergistic activity in combination” value is listed as “did not show significant synergy in the 6 MM cell lines tested”.
